Results reported in US20220088225A1, “VIRAL TRANSDUCTION USING POLOXAMINES” (SIRION Biotech GmbH, priority 2018, published 2022).

System: A2780 cells
Experiment: Lentiviral transduction of adherent A2780 cells, Luciferase-expressing lentivirus, luminescence (RLU)
Assay type: cell-based, human
Protocol: Human ovarian carcinoma cells A2780 (Sigma Aldrich) and human lung adenocarcinoma cells NCl H1838 (ATTC) were grown in RPMI 1640 medium supplemented with 10% (vol/vol) fetal calf serum (FCS; Biochrom) and 2 mM L-glutamine (PAN Biotech).
The lentiviral transduction vectors p-Ubic-Luc2-IRES-Puro and p-CMV-copGFP-IRES-Puro allow expression of Luciferase driven by Ubic promoter or copGFP by CMV promoter, respectively. Replication-defective lentiviral particles were produced by transient co-transduction of HEK293-TN cells in a T75 flask with 10 μg of packaging plasmids pMDL, pVSV-G, pRev (Roche) and 2 μg of transduction vector using Lipofectamine 2000 (Life Technologies) as transduction reagent according to the manufacturer's instructions. […]
To quantify total viral transgene expression by Luciferase, 100 μl Steady-Glo reagent (Promega) was added to the cells 3 days after viral transduction. The plate with the cells was put into a Tecan Infinite M200 plate reader and shaken for 30 seconds. After incubation for 10 minutes at room temperature, luminescence signal was measured by the plate reader. […]
As controls virus only (with H2O instead of adjuvant), or […] Polybrene was added to the wells before transduction. […] Three days post transduction the efficiency of transduction was assessed by measuring luciferase activity on a plate reader. Results are presented in relative luminescence units (RLU). […]

Protamine sulfate
increase of total transgene expression compared to virus only (5 μg/ml Protamine sulfate alone): 1.14 fold | increase of total transgene expression compared to virus only (40 μg/ml Protamine sulfate alone): 2.08 fold
